# Source: patent publication US10814010B2, “FOXC2 inhibitor and methods of use thereof” (The Board of Regents of The University of Texas System, priority 2018, dated 2020)
# Experiments:
# Assay type in all cases: cell-based
# MDA-MB-231 cells = test: Soft-agar colony forming assay, MDA-MB-231; conditions: MDA-MB-231, soft agar, 20 μM
# Experimental: It was hypothesized that the specific binding of MC-1-F2 can lead to its specific cellular activity against cancer cells with high FOXC2 expression. This hypothesis was tested by evaluating MC-1-F2's cellular activity on cell lines with different FOXC2 expression levels: MCF-7, BT549, and MDA-MB-231. […] However, further studies are still underway. The specificity in cellular activity of MC-1-F2 was further evaluated in the form of a soft-agar colony forming assay to determine if MC-1-F2 was able to inhibit in vitro tumorigenicity of cancer cells in a FOXC2 expression-dependent manner. […] Further testing is underway in various breast cancer cell lines with different FOXC2 expression levels.
# Soft-agar colony-formation assay was performed in 6-well plates. 5×10^3 cells were re-suspended into 1.5 mL 0.3% agarose-DMEM mixture, and seeded onto the 0.5% agarose-DMEM base layer. FBS-supplemented DMEM medium (0.2 mL) containing the compound of determined concentrations was added on the top and changed every 3 days. After 10 days incubation in 37° C. incubator with 5% CO2, 0.5 mL of 0.005% crystal violet solution was added to the top of the agarose gel and incubated overnight. The total number of colonies per well that were >100 microns in size when viewed under a simple microscope were counted. Light microscopy images were captured under 20× magnification.
# DU145 cells = test: Transwell invasion assay, DU145; conditions: DU145, 24 hours, vs DMSO
# Experimental: Following determination of both inhibition of EMT and CSC properties, the inhibition of the migratory and invasive capabilities of both cell lines following MC-1-F2 treatment was examined through the use of a transwell invasion assay.
# Matrigel invasion chambers (Corning) were allowed to come to room temperature and allowed to rehydrate for 2 hours in a cell incubator. Cells were treated 24 hours prior to assay and starved in 2% FBS in DMEM for 2 hours prior to assay. A cell suspension containing 5×10^4 cells/mL was prepared. Chemoattractant (DMEM+10% FBS) was added to the bottom of the wells. Using forceps, the inserts were transferred inside the wells and 0.5 mL of cell suspension was immediately added. The chambers were incubated for 22 hours in a humidified tissue culture incubator. After the 22 hours, the non-invading cells were removed by scrubbing the surface of the membrane. The cells were fixated with 4% formaldehyde solution for 2 minutes at room temperature. Followed by permeabilization of the membrane with 100% MeOH for 20 minutes at room temperature. The cells were stained with 0.5% crystal violet solution and several images of the wells were then taken and total number of cells counted for analysis.
# PC3 cells = test: Western blot of EMT, CSC markers and AR in PC3; conditions: PC3, 20 μM, 48 hours
# Excerpt: Due to our interest in CRPC the cell lines DU145 and PC3 were chosen due to their chemoresistance to high concentrations of enzalutamide, androgen independence, and relatively high expression of FOXC2 (FIGS. 30A&B). First, the effect of MC-1-F2 on the inhibition of EMT markers was examined (FIGS. 26A-G). […] The variability in E-cadherin expression can be due to a different mode of action the ligand MC-1-F2 is having on prostate cancer cells, possibly a time dependent effect of the ligand.
# After confirmation of the ligand's ability to block EMT, the ligand's ability to decrease cancer stem cell (CSC) characteristics was determined. CRPC is plagued by a higher ratio of CSC to normal prostate cells, leading to the acquired characteristics of higher proliferative and self-renewal capabilities (Yun et al., 2016). CSC markers, Nanog, C-myc and KLF4, were examined.
# 50 μg of total protein per sample was incubated with 4× loading buffer at 100° C. for 5 min. Protein samples were then loaded into a polyacrylamide gel and subjected to SDS-PAGE. Resolved proteins were then transferred by a wet transfer method to a PVDF membrane at 100 V for 1 hour using a BioRad Mini Trans-Blot Electrophoresis Transfer Cell. Upon the completion of wet transfer, the membrane was then blocked with 5% (w/v) fat-free milk in 1× Tris-buffered saline/0.1% (v/v) Tween-20 (TBS-T) for at least 1 hour. Then incubated with the respective primary antibodies diluted in 5% BSA in 1×TBST at 4° C. overnight. The following day exposed to 1:1000 dilution of anti-mouse […] secondary antibodies in 5% (w/v) fat-free milk in 1×TBS-T for 1 hour at room temperature. The probed proteins were then detected for chemiluminescent signal using SuperSignal Chemiluminescent Substrate (PIERCE). Pierce antibodies: B-actin, and all other antibodies used are from cell signaling.
smiles,measurement,setting,value
N=C(N)NCCCCNc1nc(Nc2ccc(Oc3ccccc3)cc2)nc(N2CCN(c3nc(N)nc(Nc4ccc(N5CCOCC5)cc4)n3)CC2)n1 [MC-1-F2],colony forming activity,MDA-MB-231 cells,strong inhibition of colony forming activity
same,invasiveness (transwell invasion),DU145 cells,remarkable inhibition in invasiveness
same,AR expression,PC3 cells,no effect on AR expression
same,"CSC markers Nanog, C-myc and KLF4",PC3 cells,significant decreases
same,E-cadherin expression levels,PC3 cells,no recovery in the expression levels of E-cadherin
same,"EMT markers ZEB1, Vimentin, N-cadherin and Slug",PC3 cells,inhibit various EMT markers
same,epithelial marker ZO-1 expression,PC3 cells,recovery of the epithelial marker ZO-1
